Experimental data as given in US20070010671A1, “Novel quinazoline derivatives and methods of treatment related to the use thereof” (priority 2003, published 2007).

Target: MCH receptor (Homo sapiens, UniProt Q99705)
Test: High throughput functional screening FLIPR/FDSS6000: inhibition of MCH-evoked intracellular Ca2+ changes
Format: cell-based
Details: class by percent of control at 10^-7 M or by IC50; read-out: class
Procedure, shortened: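 Constitutively active non-endogenous MCH-R cells; Fluo4-AM 4 μM, 2.5 mM probenecid, 1 hr, 37° C; cpd 3 min, 37° C; MCH 50 nM (antagonist mode); kinetic Ca2+ read Ex488/Em530, 290 s.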

Question: For `CC(=O)c1cccc(NC(=O)N[C@H]2CC[C@@H](Nc3nc(N(C)C)c4ccccc4n3)CC2)c1` [compound 4], which IC50 is on record?
Answer: > 200 nM

Question: `CC(=O)c1ccc(NC(=O)N[C@H]2CC[C@@H](Nc3nc(N(C)C)c4ccccc4n3)CC2)cc1` [compound 6] was tested. Which IC50 did it give?
Answer: > 200 nM

Question: Which IC50 does the source give for `CN(C)c1nc(N[C@H]2CC[C@@H](NC(=O)NC(=O)c3ccccc3)CC2)nc2ccccc12` [compound 7] here?
Answer: > 200 nM

Question: `CN(C)c1nc(N[C@H]2CC[C@@H](NC(=O)Nc3cc(C(F)(F)F)cc(C(F)(F)F)c3)CC2)nc2ccccc12` [compound 8] was tested. Which IC50 did it give?
Answer: > 200 nM

Question: For `CN(C)c1nc(N[C@H]2CC[C@@H](NC(=O)NCc3ccccc3)CC2)nc2ccccc12` [compound 9, N-benzyl-N′-(cis-4-{[4-(dimethylamino)quinazolin-2-yl]amino}cyclohexyl)urea], which IC50 is on record?
Answer: 50 to 200 nM

Question: With `CN(C)c1nc(N[C@H]2CC[C@@H](NC(=O)Nc3ccccc3Br)CC2)nc2ccccc12` [compound 10, N-(2-bromophenyl)-N′-(cis-4-{[4-(dimethylamino)quinazolin-2-yl]amino}cyclohexyl)urea] as the compound, how does the IC50 read?
Answer: < 50 nM

Question: `CN(C)c1nc(N[C@H]2CC[C@@H](NC(=O)Nc3ccccc3-c3ccccc3)CC2)nc2ccccc12` [compound 11, N-biphenyl-2-yl-N′-(cis-4-{[4-(dimethylamino)quinazolin-2-yl]amino}cyclohexyl)urea] was tested. Which IC50 did it give?
Answer: < 50 nM

Same assay, conditions: class by percent of control at 10^−7 M or by IC50; read-out: class

Question: For `CN(C)c1nc(N[C@H]2CC[C@@H](C(=O)NCc3ccc(F)cc3Cl)CC2)nc2ccccc12` [Example 1182, cis-N-(2-chloro-4-fluorobenzyl)-4-{[4-(dimethylamino)quinazolin-2-yl]amino}cyclohexanecarboxamide], which IC50 is on record?
Answer: < 50 nM

Question: Which IC50 does the source give for `CN(C)c1nc(N[C@H]2CC[C@@H](C(=O)NCc3cc(C(F)(F)F)ccc3Cl)CC2)nc2ccccc12` [Example 1183, cis-N-[2-chloro-5-(trifluoromethyl)benzyl]-4-{[4-(dimethylamino)quinazolin-2-yl]amino}cyclohexanecarboxamide] here?
Answer: < 50 nM

Question: Which IC50 does the source give for `CN(C)c1nc(N[C@H]2CC[C@@H](C(=O)NCc3ccccc3OC(F)F)CC2)nc2ccccc12` [Example 1184, cis-N-[2-(difluoromethoxy)benzyl]-4-{[4-(dimethylamino)quinazolin-2-yl]amino}cyclohexanecarboxamide] here?
Answer: < 50 nM

Question: Which IC50 does the source give for `CN(C)c1nc(N[C@H]2CC[C@@H](C(=O)NCc3cccc(OC(F)F)c3)CC2)nc2ccccc12` [Example 1185, cis-N-[3-(difluoromethoxy)benzyl]-4-{[4-(dimethylamino)quinazolin-2-yl]amino}cyclohexanecarboxamide] here?
Answer: < 50 nM

Question: How did the IC50 turn out when `CN(C)c1nc(N[C@H]2CC[C@@H](C(=O)NCc3cccc(OC(F)(F)F)c3)CC2)nc2ccccc12` [Example 1186, cis-4-{[4-(dimethylamino)quinazolin-2-yl)amino}-N-[3-(trifluoromethoxy)benzyl]cyclohexanecarboxamide] was run?
Answer: < 50 nM

Question: `Cc1cc(Cl)cc(Cl)c1CNC(=O)[C@H]1CC[C@@H](Nc2nc(N(C)C)c3ccccc3n2)CC1` [Example 1187, cis-N-(2,4-dichloro-6-methylbenzyl)-4-{[4-(dimethylamino)quinazolin-2-yl]amino}cyclohexanecarboxamide] was tested. Which IC50 did it give?
Answer: 50 to 200 nM

Question: For `COc1cccc(OC)c1CNC(=O)[C@H]1CC[C@@H](Nc2nc(N(C)C)c3ccccc3n2)CC1` [Example 1188, cis-N-(2,6-dimethoxybenzyl)-4-{[4-(dimethylamino)quinazolin-2-yl]amino}cyclohexanecarboxamide], which IC50 is on record?
Answer: < 50 nM

Question: `C[C@@H](NC(=O)[C@H]1CC[C@@H](Nc2nc(N(C)C)c3ccccc3n2)CC1)c1ccccc1` [Example 1189, cis-4-{[4-(dimethylamino)quinazolin-2-yl]amino}-N-[(1R)-1-phenylethyl]cyclohexanecarboxamide] was tested. Which IC50 did it give?
Answer: < 50 nM

Question: For `COc1ccc([C@H](C)NC(=O)[C@H]2CC[C@@H](Nc3nc(N(C)C)c4ccccc4n3)CC2)cc1` [Example 1190, cis-4-{[4-(dimethylamino)quinazolin-2-yl]amino}-N-[(1S)-1-(4-methoxyphenyl)ethyl]cyclohexanecarboxamide], which IC50 is on record?
Answer: < 50 nM

Question: `COc1ccc(C(NC(=O)[C@H]2CC[C@@H](Nc3nc(N(C)C)c4ccccc4n3)CC2)c2ccc(OC)cc2)cc1` [Example 1192, cis-N-[bis(4-methoxyphenyl)methyl]-4-{[4-(dimethylamino)quinazolin-2-yl]amino}cyclohexanecarboxamide] was tested. Which IC50 did it give?
Answer: < 50 nM

Question: With `CN(C)c1nc(N[C@H]2CC[C@@H](C(=O)NCc3ccccc3C(F)(F)F)CC2)nc2ccccc12` [Example 1193, cis-4-{[4-(dimethylamino)quinazolin-2-yl]amino}-N-[2-(trifluoromethyl)benzyl]cyclohexanecarboxamide] as the compound, how does the IC50 read?
Answer: < 50 nM

Question: `CN(C)c1nc(N[C@H]2CC[C@@H](C(=O)NC3c4ccccc4-c4ccccc43)CC2)nc2ccccc12` [Example 1194, cis-4-{[4-(dimethylamino)quinazolin-2-yl]amino}-N-9H-fluoren-9-ylcyclohexanecarboxamide] was tested. Which IC50 did it give?
Answer: < 50 nM

Question: With `CN(C)c1nc(N[C@H]2CC[C@@H](C(=O)NCc3ccc(S(C)(=O)=O)cc3)CC2)nc2ccccc12` [Example 1195, cis-4-{[4-(dimethylamino)quinazolin-2-yl]amino}-N-[4-(methylsulfonyl)benzyl]cyclohexanecarboxamide] as the compound, how does the IC50 read?
Answer: < 50 nM

Question: For `CN(C)c1nc(N[C@H]2CC[C@@H](C(=O)Nc3ccc(Cl)nc3)CC2)nc2ccccc12` [Example 1196, cis-N-(6-chloropyridin-3-yl)-4-{[4-(dimethylamino)quinazolin-2-yl]amino}cyclohexanecarboxamide], which IC50 is on record?
Answer: < 50 nM

Question: `CN(C)c1nc(N[C@H]2CC[C@@H](C(=O)Nc3cccnc3Cl)CC2)nc2ccccc12` [Example 1197, cis-N-(2-chloropyridin-3-yl)-4-{[4-(dimethylamino)quinazolin-2-yl]amino}cyclohexanecarboxamide] was tested. Which IC50 did it give?
Answer: > 200 nM

Question: With `CN(C)c1nc(N[C@H]2CC[C@@H](C(=O)Nc3nc4ccccc4[nH]3)CC2)nc2ccccc12` [Example 1198, cis-N-1H-benzimidazol-2-yl-4-{[4-(dimethylamino)quinazolin-2-yl]amino}cyclohexanecarboxamide] as the compound, how does the IC50 read?
Answer: > 200 nM

Question: For `CN(C)c1nc(N[C@H]2CC[C@@H](C(=O)Nc3nc(C(C)(C)C)c(Br)s3)CC2)nc2ccccc12` [Example 1199, cis-N-(5-bromo-4-tert-butyl-1,3-thiazol-2-yl)-4-{[4(dimethylamino)quinazolin-2-yl]amino}cyclohexanecarboxamide], which IC50 is on record?
Answer: > 200 nM

Question: For `CCC(=O)Nc1cccc(C(=O)N[C@H]2CC[C@@H](Nc3nc(N(C)C)c4ccccc4n3)CC2)c1` [Example 1200, N-(cis-4-{[4-(dimethylamino)quinazolin-2-yl]amino}cyclohexyl)-3-(propionylamino)benzamide], which IC50 is on record?
Answer: < 50 nM

Question: Which IC50 does the source give for `CC(C)CC(=O)Nc1cccc(C(=O)N[C@H]2CC[C@@H](Nc3nc(N(C)C)c4ccccc4n3)CC2)c1` [Example 1201, N-(cis-4-{[4-(dimethylamino)quinazolin-2-yl]amino}cyclohexyl)-3-[(3-methylbutanoyl)amino]benzamide] here?
Answer: 50 to 200 nM

Question: How did the IC50 turn out when `CN(C)c1nc(N[C@H]2CC[C@@H](NC(=O)c3cccc(NC(=O)C(C)(C)C)c3)CC2)nc2ccccc12` [Example 1202, N-(cis-4-{(4-(dimethylamino)quinazolin-2-yl]amino}cyclohexyl)-3-[(2,2-dimethylpropanoyl)amino]benzamide] was run?
Answer: 50 to 200 nM

Question: `CN(C)c1nc(N[C@H]2CC[C@@H](NC(=O)c3cccc(NC(=O)C4CCCC4)c3)CC2)nc2ccccc12` [Example 1203, 3-[(cyclopentylcarbonyl)amino]-N-(cis-4-{[4-(dimethylamino)quinazolin-2-yl]amino}cyclohexyl)benzamide] was tested. Which IC50 did it give?
Answer: < 50 nM

Question: `CC(=O)Nc1cccc(C(=O)N[C@H]2CC[C@@H](Nc3nc(N(C)C)c4ccccc4n3)CC2)c1` [Example 1204, 3-(acetylamino)-N-(cis-4-{[4-(dimethylamino)quinazolin-2-yl]amino}cyclohexyl)benzamide] was tested. Which IC50 did it give?
Answer: < 50 nM

Question: With `CN(C)c1nc(N[C@H]2CC[C@@H](NC(=O)c3ccccc3)CC2)nc2cc(F)c(F)cc12` [Example 1205, N-(cis-4-{[4-(dimethylamino)-6,7-difluoroquinazolin-2-yl]amino}cyclohexyl)benzamide] as the compound, how does the IC50 read?
Answer: < 50 nM

Question: `Cc1ccc(C(=O)N[C@H]2CC[C@@H](Nc3nc(N(C)C)c4cc(F)c(F)cc4n3)CC2)cc1` [Example 1206, N-(cis-4-{[4-(dimethylamino)-6,7-difluoroquinazolin-2-yl]amino}cyclohexyl)-4-methylbenzamide] was tested. Which IC50 did it give?
Answer: < 50 nM

Question: With `CN(C)c1nc(N[C@H]2CC[C@@H](NC(=O)c3ccc(F)cc3)CC2)nc2cc(F)c(F)cc12` [Example 1207, N-(cis-4-{[4-(dimethylamino)-6,7-difluoroquinazolin-2-yl]amino}cyclohexyl)-4-fluorobenzamide] as the compound, how does the IC50 read?
Answer: < 50 nM

Question: How did the IC50 turn out when `COc1cccc(C(=O)N[C@H]2CC[C@@H](Nc3nc(N(C)C)c4cc(F)c(F)cc4n3)CC2)c1` [Example 1208, N-(cis-4-{[4-(dimethylamino)-6,7-difluoroquinazolin-2-yl]amino}cyclohexyl)-3-methoxybenzamide] was run?
Answer: < 50 nM

Question: With `CN(C)c1nc(N[C@H]2CC[C@@H](NC(=O)c3ccc(F)c(F)c3)CC2)nc2cc(F)c(F)cc12` [Example 1209, N-(cis-4-{[4-(dimethylamino)-6,7-difluoroquinazolin-2-yl]amino}cyclohexyl)-3,4-difluorobenzamide] as the compound, how does the IC50 read?
Answer: < 50 nM

Question: `CN(C)c1nc(N[C@H]2CC[C@@H](NC(=O)c3cccc(C(F)(F)F)c3)CC2)nc2cc(F)c(F)cc12` [Example 1210, N-(cis-4-{[4-(dimethylamino)-6,7-difluoroquinazolin-2-yl]amino}cyclohexyl)-3-(trifluoromethyl)benzamide] was tested. Which IC50 did it give?
Answer: < 50 nM

Question: With `CN(C)c1nc(N[C@H]2CC[C@@H](NC(=O)c3ccc(OC(F)(F)F)cc3)CC2)nc2cc(F)c(F)cc12` [Example 1211, N-(cis-4-{[4-(dimethylamino)-6,7-difluoroquinazolin-2-yl]amino}cyclohexyl)-4-(trifluoromethoxy)benzamide] as the compound, how does the IC50 read?
Answer: > 200 nM
